Key:
[1] = tested on: T cells from HLA A0201 donors challenged with peptide-pulsed T2 cells; assay: Gamma interferon ELISPOT of T cells after in vitro stimulation with peptide; format: cell-based, human; conditions: for immune response (IFN-gamma secretion, ELISPOT) / recognition of the native sequence by T cells elicited with the peptide / immune response as gamma-IFN secretion by CD3+ T cells: healthy HLA A0201 donors; for immune response (IFN-gamma secretion, ELISPOT): second or third round of peptide stimulation, peptide-pulsed T2 targets; for recognition of the native sequence by T cells elicited with the peptide: T2 pulsed with native peptide; for immune response as gamma-IFN secretion by CD3+ T cells: b2a2-derived peptides, FIG. 4; for IFN-γ production (ELISPOT) / heteroclitic response (ELISPOT): CD3+ T cells from HLA A0201 donors; for IFN-γ production (ELISPOT): imatinib resistance-associated peptides, two or three stimulations; for heteroclitic response (ELISPOT): FIGS. 8 and 9
HLA A0201 molecules = molecular target: T1, HLA A0201 molecules (Homo sapiens, UniProt P04439, D140Y/D185E/D98H/E176V/E277Q/G131W/G231S/I119V/I121R/I166T/I218V/L300P/L318F/N151K/N90K/P208A/P217A/Q86G/Q94H/R138H/R169H/T345S); assay: T2 assay for peptide binding to HLA A0201 molecules; conditions: T2 cells, FIG. 1
T1 construct: endogenous in cells; host or cells: T2 (174xCEM.T2) human cell line
Method: (§1) T2 cells (TAP-, HLA-A0201^+) were incubated overnight at 27° C. at a concentration of 1×10^6 cells/ml in FCS-free RPMI medium supplemented with 5 μg/ml human β2microglobulin (Sigma, St Louis, Mo.) in the absence (negative control) or presence of either a positive reference tyrosinase peptide or test peptides at various final concentrations (50, 10, 1, and 0.1 μg/ml). Following a 4-hour incubation with 5 μg/ml brefeldin A (Sigma), T2 cells were labeled for 30 minutes at 4° C. with a saturating concentration of anti-HLA-A2.1 (BB7.2) monoclonal antibody (mAb), then washed twice. The cells were then incubated for 30 minutes at 4° C. with a saturating concentration of FITC-conjugated goat IgG F(ab′)2 anti-mouse Ig (Caltag, South San Francisco, Calif.), washed twice, fixed in PBS/1% paraformaldehyde and analyzed using a FACS Calibur® cytofluorometer (Becton Dickinson, Immunocytometry systems, San Jose, Calif.).
The mean intensity of fluorescence (MIF) observed for each peptide concentration (after dividing of the MIF observed without peptide) was used as an estimate of peptide binding and expressed as a fluorescence index. Stabilization assays were performed similarly. Following initial evaluation of peptide binding at time 0, cells were washed in RPMI complete medium to remove free peptides and incubated in the continuous presence of 0.5 pg/ml brefeldin-A for 2, 4, 6 or 8 hours. […]

[2] = tested on: T2 cells pulsed with peptide; assay: Chromium-51 release cytotoxicity assay with peptide-stimulated T cells; format: cell-based, human; conditions: for killing of cells expressing the native peptide: T cell lines after several stimulations with the heteroclitic peptide; for killing of T2 cells pulsed with the heteroclitic peptide: T cell lines after several stimulations, no lysis of T2 without peptide or with control peptide; for killing of T2 cells pulsed with kinase mutant sequence peptides: T cells generated by several stimulations with the peptide, not with control peptide or no peptide
Method: T lymphocytes were isolated from the same donors by use of negative selection by depletion with an anti-CD11b, anti-CD56 and CD19 MAb (Miltenyi, CA). A total of 1×10^6 pure T lymphocytes were cultured with 1×10^5 autologous DC in RPMI 1640 medium supplemented with 5% heat-inactivated human autologous plasma with bcr-abl synthetic peptides at a concentration of 10 μg/mL and β2 microglobulin at 2 μg/ml in 24-well plates in the presence of 5-10 ng/mL recombinant human IL-7 (Genzyme) and 0.1 ng/ml IL-12. After culture for 3 days 20 U/ml of IL-2 was added. After 10 days, 1×10^6 cells were stimulated again by adding 2×10^5 autologous, magnetically isolated CD14^+ monocytes together with 10 ng/ml of IL-7 and 20 U/ml IL-2 and peptide at a concentration of […]. In some cases, as indicated, after culture for another 7 days, the cells were stimulated a third time, in the same manner. After the second or third stimulation, CD8 T cells were magnetically isolated and cytotoxicity and gamma-IFN (interferon) secretion of these cells was then examined.
The presence of specific CTLs was measured in a standard 4 h-chromium release assay as follows. 4×10^6 targets were labeled with 300 μCi of Na2 ^51CrO+ (NEN Life Science Products, Inc. Boston, Mass.) for 1 hour at 37° C. After washing, cells at 2×10^6/ml concentration were incubated with or without synthetic peptides at a concentration of 10 μg/ml for 2 h at 20° C. in presence of β2 microglobulin at 3 μg/ml. After washing by centrifugation, target cells were resuspended in complete media at 5×10^4 cells per ml and plated in a 96 well U-bottom plate (Becton Dickinson®, NY) at 5×10^3 cells per well with effector cells at effector to target (E/T) ratios ranging from 100:1 to 10:1. Plates were incubated for 5 hours at 37° C. in 5% CO2. Supernatant fluids were harvested and radioactivity was measured -in a gamma counter. Percent specific lysis was determined from the following formula: 100× [(experimental release−spontaneous release)/(maximum release−spontaneous release)]. Maximum release was determined by lysis of targets in 2.5% Triton X-100.
In order to determine whether the in vitro-generated T cells were capable of cytolysis, T cell lines obtained after several stimulations with p210C and b2a2A3 were assayed by chromium-51 release assays using peptide pulsed target cell lines.

[3] = molecular target: T2, HLA-A0201 molecule on T2 cells (TAP-, HLA-A0201+) (human); assay: T2 binding and stabilization assay, flow cytometry with BB7.2
T2 construct: Empty, thermolabile HLA-A0201 on live T2 cells; also called HLA-A2.1
Method: as §1, with “HLA-A0201⁺)” for “HLA-A0201^+)”, “1×10⁶” for “1×10^6”, “β₂microglobulin” for “β2microglobulin”
The mean intensity of fluorescence (MIF) observed for each peptide concentration (after dividing of the MIF observed without peptide) was used as an estimate of peptide binding and expressed as a fluorescence index. Stabilization assays were performed similarly. Following initial evaluation of peptide binding at time 0, cells were washed in RPMI complete medium to remove free peptides and incubated in the continuous presence of 0.5 pg/ml brefeldin-A for 2, 4, 6 or 8 hours.
For peptides to be immunogenic, in an MHC class I-restricted context, they require the capacity to bind and stabilize MHC class I molecules on the live cell surface. Since the computer prediction models above have 60-80% predictive accuracy, direct measurement of the strength of the interaction between the peptides and the HLA-A0201 molecule was performed, with a conventional binding and stabilization assay that uses the antigen-transporting deficient (TAP2 negative) HLA-A0201 human T2 cells.

[4] = molecular target: T2, HLA-A0201 molecule on T2 cells (TAP-, …); assay: T2 assay, referred to in the ELISPOT example

## YLFKQSSKV (listed as Homo sapiens) [p210E]
[1]
  immune response (IFN-gamma secretion, ELISPOT): produced an immune response in some donors tested

## SSKALQRPV (listed as Homo sapiens) [CMLA2, native b3a2 breakpoint peptide, previously described]
HLA A0201 molecules
  binding to HLA A0201 in the T2 assay: weak MHC binder

## YLINKEEAL (listed as Homo sapiens) [b2a2 A3]
[1]
  recognition of the native sequence by T cells elicited with the peptide: recognized the native sequence as well
  immune response as gamma-IFN secretion by CD3+ T cells: significant immune respose
[2]
  killing of cells expressing the native peptide: able to recognize and kill cells expressing the native peptide
  killing of T2 cells pulsed with the heteroclitic peptide: able to kill T2 cells pulsed with the heteroclitic peptides

## KLGGGQYGV (listed as Homo sapiens) [V2A1]
[1]
  IFN-γ production (ELISPOT): greater IFN-γ was produced following a third stimulation

## YIIIEFMTYV (listed as Homo sapiens) [T3B2]
[1]
  heteroclitic response (ELISPOT): stimulated heteroclitic responses

## YLGGGQFGV (listed as Homo sapiens) [V2A2]
[1]
  IFN-γ production (ELISPOT): greater IFN-γ production following a second stimulation
  recognition of the native sequence by T cells elicited with the peptide: recognized native sequences

## YLINKVEAL (listed as Homo sapiens) [b2a2 A5]
[1]
  immune response as gamma-IFN secretion by CD3+ T cells: significant immune respose

## YLINKEEAV (listed as Homo sapiens) [b2a2 A4]
[1]
  immune response as gamma-IFN secretion by CD3+ T cells: significant immune respose

## KLGGGQFGV (listed as Homo sapiens) [V2A3]
[1]
  heteroclitic response (ELISPOT): stimulated heteroclitic responses

## IIIEFMTYV (listed as Homo sapiens) [T3A2]
[2]
  killing of T2 cells pulsed with kinase mutant sequence peptides: able to kill T2 cells pulsed with specific kinase mutant sequence peptides

## KLLQRPVAV (listed as Homo sapiens) [p210C]
[1]; 4 patients with chronic phase CML assayed
  immune responses in CML patients: observed in two of the CML patients
[1]; CML patient, two rounds of stimulation
  frequency of CD8+ cells recognizing T2 pulsed with the synthetic peptide: ~400 spot-forming cells (SCF) per 1×10^5 cells
[1]
  recognition of the native sequence by T cells elicited with the peptide: able to recognize their respective native sequences
  immune response (IFN-gamma secretion, ELISPOT): most consistent and significant immune-responses
[2]
  killing of cells expressing the native peptide: able to recognize and kill cells expressing the native peptide
  killing of T2 cells pulsed with the heteroclitic peptide: able to kill T2 cells pulsed with the heteroclitic peptides

## KQSSKALQV (listed as Homo sapiens) [p210A]
[1]
  immune response (IFN-gamma secretion, ELISPOT): no immune response

## KLSSKALQV (listed as Homo sapiens) [p210B]
[1]
  immune response (IFN-gamma secretion, ELISPOT): no immune response

## TLFKQSSKV (listed as Homo sapiens) [p210D]
[1]
  immune response (IFN-gamma secretion, ELISPOT): produced an immune response in some donors tested

## KVYEGVWKV (listed as Homo sapiens) [K2A3]
[1]
  heteroclitic response (ELISPOT): stimulated heteroclitic responses
[2]
  killing of T2 cells pulsed with kinase mutant sequence peptides: able to kill T2 cells pulsed with specific kinase mutant sequence peptides

## YLINKEEAL [b2a2 A3 (analogue)]
[3]
  binding result: binds

## YLINKEEAV [b2a2 A4 (analogue)]
[3]
  binding result: binds

## YLINKVEAL [b2a2 A5 (analogue)]
[3]
  binding result: binds

## SSKALQRPV [CMLA2 native]
[4]
  binding result: binds

## KALQRPVAS [p210Cn native]
[3]
  binding result: binds

Reference: patent US20060153861A1, “BCR-ABL imatinib resistance-associated peptides and methods of use thereof” (priority 2004, published 2006)
